For nine molecules, Activity and Ki results are on record in ChEMBL document CHEMBL1777762, “Design and synthesis of protein kinase Cα activators based on 'out of pocket' interactions” (Bioorg Med Chem Lett, 2011).

Assay [1] concerns the target T1, Protein kinase C alpha type (Homo sapiens, UniProt P17252). Briefly: Activation of human recombinant PKCalpha assessed as rate of phosphate incorporation into PepTag C1 peptide at 1 to 100 uM after 40 mins by agarose gel electrophoresis analysis.
Assay [2] deals with T1, Protein kinase C alpha type. Briefly: Displacement of [3H]PDBu from human recombinant PKCalpha after 20 mins by liquid scintillation counting. On the technique in general: Loss of bound radioactivity is the signal in a displacement assay; it reports binding, not function.
The target is the same in assay [3]. Briefly: Activation of human recombinant PKCalpha assessed as rate of phosphate incorporation into PepTag C1 peptide at 1 uM after 40 mins by agarose gel electrophoresis analysis relative to control.
Assay [4] shares this target. Briefly: Activation of human recombinant PKCalpha assessed as rate of phosphate incorporation into PepTag C1 peptide at 100 uM after 40 mins by agarose gel electrophoresis analysis relative to control.
Assay [5] has the same target. Nature of the assay: Activation of human recombinant PKCalpha assessed as rate of phosphate incorporation into PepTag C1 peptide at 0.01 uM after 40 mins by agarose gel electrophoresis analysis relative to control.
For assay [6] the target is unchanged. Nature of the assay: Activation of human recombinant PKCalpha assessed as rate of phosphate incorporation into PepTag C1 peptide at 0.1 uM after 40 mins by agarose gel electrophoresis analysis relative to control.
For assay [7] the target is unchanged. Nature of the assay: Activation of human recombinant PKCalpha assessed as rate of phosphate incorporation into PepTag C1 peptide at 0.001 uM after 40 mins by agarose gel electrophoresis analysis relative to control.
For assay [8] the target is unchanged. Briefly: Activation of human recombinant PKCalpha assessed as rate of phosphate incorporation into PepTag C1 peptide at 0.0001 uM after 40 mins by agarose gel electrophoresis analysis relative to control.
Assay [9] shares this target. Briefly: Activation of human recombinant PKCalpha assessed as rate of phosphate incorporation into PepTag C1 peptide at 10 uM after 40 mins by agarose gel electrophoresis analysis relative to control.

SMILES strings stand for the structures. Active and inactive are the calls of the source. The rule behind the calls is not given here.

For orientation: Ki means the dissociation constant of the complex between target and ligand, obtained from inhibition or displacement. Regarding `CCCCCCCCCCCCO[C@H]1[C@@H](OC(C)=O)[C@H](OC(C)=O)[C@@H](OCC#Cc2cccc3c2C(=O)O[C@]3(CO)COC(=O)C(C(C)(C)C)C(C)(C)C)[C@H](OC(C)=O)[C@H]1OC(C)=O`, the outcome in assay [1] was Active. Further, the Ki in [2] turned out to be 2.34 µM.
As for `CCCCCCCCCCCCO[C@@H]1[C@H](OC)[C@@H](OC)[C@H](OCC#Cc2cccc3c2C(=O)O[C@]3(CO)COC(=O)C(C(C)(C)C)C(C)(C)C)[C@@H](OC)[C@@H]1OC`, the outcome in assay [1] was Active. Further, in assay [2], the Ki is 0.6 µM.
`CCCCCCCCCCCCO[C@H]1[C@@H](OCc2ccc(C(C)C)cc2)[C@H](OCc2ccc(C(C)C)cc2)[C@@H](OCC#Cc2cccc3c2C(=O)O[C@]3(CO)COC(=O)C(C(C)(C)C)C(C)(C)C)[C@H](OCc2ccc(C(C)C)cc2)[C@H]1OCc1ccc(C(C)C)cc1`: in [1], the outcome was Active. Besides, the inhibition constant Ki in assay [2] was over 20 µM.
Take `CCCCCCCCCCCCO[C@H]1[C@@H](OCc2ccc(F)cc2)[C@H](OCc2ccc(F)cc2)[C@@H](OCC#Cc2cccc3c2C(=O)O[C@]3(CO)COC(=O)C(C(C)(C)C)C(C)(C)C)[C@H](OCc2ccc(F)cc2)[C@H]1OCc1ccc(F)cc1`: in [1], the outcome was Active. Besides, the inhibition constant Ki in assay [2] was over 20 µM.
Take `CCCCCCCCCCCCO[C@H]1[C@@H](OCc2ccccc2)[C@H](OCc2ccccc2)[C@@H](OCC#Cc2cccc3c2C(=O)O[C@]3(CO)COC(=O)C(C(C)(C)C)C(C)(C)C)[C@H](OCc2ccccc2)[C@H]1OCc1ccccc1`: in assay [1], the outcome was Active. Also, in assay [2], the Ki is over 20 µM.
As to `CCCCCCCCCCCCO[C@@H]1[C@H](OCC=C(C)C)[C@@H](OC/C=C/C(C)C)[C@H](OCC#Cc2cccc3c2C(=O)O[C@]3(CO)COC(=O)C(C(C)(C)C)C(C)(C)C)[C@@H](OCC=C(C)C)[C@@H]1OCC=C(C)C`, in assay [1], the result was Active. For the same molecule, the Ki in [2] was over 20 µM.
Regarding `CCCCCCCCCCCCOc1cccc2c1C(=O)O[C@]2(CO)COC(=O)CCCCCCCCCCC`, the Ki in assay [2] was over 3 µM.
On to `CCCCCCCCCCCCCC(=O)O[C@@H]1[C@@H](C)[C@@]2(O)[C@@H](C=C(CO)C[C@]3(O)C(=O)C(C)=C[C@@H]23)[C@@H]2C(C)(C)[C@]12OC(C)=O`, for which the Activity in assay [3] came to 85.3%; in assay [4], 108%; in assay [5], 62.4%; in [6], 80.6%; in assay [7], 11.1%; in [8], 0.58%. In addition, the Activity in [9] worked out at 100%.
With `CCCCCCCCCCCCOc1cccc2c1C(=O)O[C@]2(CO)COC(=O)C(C(C)(C)C)C(C)(C)C`, the inhibition constant (Ki) in assay [2] is 0.043 µM.
